Test results as given in PubChem BioAssay (NCI).
Where “and” joins values, the source holds several entries; their conditions need not be identical. Identical values can stand only once.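 Step 1: Grow cells in 96-well plates. Step 2: Expose to compound for 48 hours at 5 concentrations. Step 3: Interpolate endpoints linearly; if unreached, use highest concentration. Abbreviation: GI50, concentration required for 50% inhibition of growth. At the TGI there is no net growth.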

Legend:
Test in all cases: DTP human tumour cell line panel, 48 h; in the data active = GI50 below about 0.43 µM; inactive = the rest
NCI-H460 lung = test system: NCI-H460 lung
SW-620 colon = test system: SW-620 colon
KM12 colon = test system: KM12 colon
DMS 273 small cell lung = test system: DMS 273 small cell lung
SK-MEL-28 melanoma = test system: SK-MEL-28 melanoma
U251 CNS = test system: U251 CNS
OVCAR-8 ovarian = test system: OVCAR-8 ovarian
COLO 205 colon = test system: COLO 205 colon
IGROV1 ovarian = test system: IGROV1 ovarian
HCT-116 colon = test system: HCT-116 colon
HCC-2998 colon = test system: HCC-2998 colon
CAKI-1 renal = test system: CAKI-1 renal
LOX IMVI melanoma = test system: LOX IMVI melanoma
K-562 leukemia = test system: K-562 leukemia
EKVX NSCLC = test system: EKVX NSCLC
M19-MEL melanoma = test system: M19-MEL melanoma
SNB-75 CNS = test system: SNB-75 CNS
DLD-1 colon = test system: DLD-1 colon
SNB-78 CNS = test system: SNB-78 CNS
HCT-15 colon = test system: HCT-15 colon
SK-MEL-2 melanoma = test system: SK-MEL-2 melanoma
A498 renal = test system: A498 renal
SK-MEL-5 melanoma = test system: SK-MEL-5 melanoma
XF 498 CNS = test system: XF 498 CNS
TK-10 renal = test system: TK-10 renal
SK-OV-3 ovarian = test system: SK-OV-3 ovarian
SF-268 CNS = test system: SF-268 CNS
LXFL 529 NSCLC = test system: LXFL 529 NSCLC
RXF 393 renal = test system: RXF 393 renal
NCI-H23 lung = test system: NCI-H23 lung
SF-295 CNS = test system: SF-295 CNS
HOP-92 NSCLC = test system: HOP-92 NSCLC
HL-60(TB) leukemia = test system: HL-60(TB) leukemia
NCI-H522 lung = test system: NCI-H522 lung
HT29 colon = test system: HT29 colon
SF-539 CNS = test system: SF-539 CNS
MOLT-4 leukemia = test system: MOLT-4 leukemia
RPMI-8226 leukemia = test system: RPMI-8226 leukemia
SN12C renal = test system: SN12C renal
UO-31 renal = test system: UO-31 renal
DMS 114 small cell lung = test system: DMS 114 small cell lung
HOP-62 NSCLC = test system: HOP-62 NSCLC
786-0 renal = test system: 786-0 renal
M14 melanoma = test system: M14 melanoma
OVCAR-5 ovarian = test system: OVCAR-5 ovarian
OVCAR-3 ovarian = test system: OVCAR-3 ovarian
CCRF-CEM leukemia = test system: CCRF-CEM leukemia
OVCAR-4 ovarian = test system: OVCAR-4 ovarian
SNB-19 CNS = test system: SNB-19 CNS
A549 NSCLC = test system: A549 NSCLC
MALME-3M melanoma = test system: MALME-3M melanoma
ACHN renal = test system: ACHN renal
RXF-631 renal = test system: RXF-631 renal
UACC-62 melanoma = test system: UACC-62 melanoma
UACC-257 melanoma = test system: UACC-257 melanoma
KM20L2 colon = test system: KM20L2 colon
HOP-18 NSCLC = test system: HOP-18 NSCLC
SR leukemia = test system: SR leukemia
NCI-H226 lung = test system: NCI-H226 lung

CC(=O)CC(=O)OC1CC(C)CCC1C(C)C (stereo not drawn)
78.8 µM: TGI (SK-MEL-2 melanoma)
40.2 µM: TGI (HL-60(TB) leukemia)
44.2 µM: TGI (MOLT-4 leukemia)
80.1 µM: TGI (HCT-116 colon)
> 100 µM: TGI (NCI-H460 lung) | TGI (SW-620 colon) | TGI (KM12 colon) | TGI (DMS 273 small cell lung) | TGI (SK-MEL-28 melanoma) | TGI (U251 CNS) | TGI (OVCAR-8 ovarian) | TGI (COLO 205 colon) | TGI (IGROV1 ovarian) | TGI (HCC-2998 colon) | TGI (CAKI-1 renal) | TGI (LOX IMVI melanoma) | TGI (K-562 leukemia) | TGI (EKVX NSCLC) | TGI (M19-MEL melanoma) | TGI (SNB-75 CNS) | TGI (DLD-1 colon) | TGI (SNB-78 CNS) | TGI (HCT-15 colon) | TGI (A498 renal) | TGI (SK-MEL-5 melanoma) | TGI (XF 498 CNS) | TGI (TK-10 renal) | TGI (SK-OV-3 ovarian) | TGI (SF-268 CNS) | TGI (LXFL 529 NSCLC) | TGI (RXF 393 renal) | TGI (NCI-H23 lung) | TGI (SF-295 CNS) | TGI (HOP-92 NSCLC) | TGI (NCI-H522 lung) | TGI (HT29 colon) | TGI (SF-539 CNS) | TGI (SN12C renal) | TGI (UO-31 renal) | TGI (DMS 114 small cell lung) | TGI (HOP-62 NSCLC) | TGI (786-0 renal) | TGI (M14 melanoma) | TGI (OVCAR-5 ovarian) | TGI (OVCAR-3 ovarian) | TGI (OVCAR-4 ovarian) | TGI (SNB-19 CNS) | TGI (A549 NSCLC) | TGI (MALME-3M melanoma) | TGI (ACHN renal) | TGI (RXF-631 renal) | TGI (UACC-62 melanoma) | TGI (UACC-257 melanoma)
44 µM: TGI (CCRF-CEM leukemia)
46.1 µM: TGI (RPMI-8226 leukemia)

COc1cc2c(c(OC)c1OC)-c1ccc(SC)c(=O)cc1C(CO)C2 (stereo not drawn)
0.385 µM: TGI (HT29 colon)
< 0.01 µM: TGI (SK-MEL-2 melanoma) | TGI (NCI-H23 lung) | TGI (M14 melanoma)
0.079 µM: TGI (KM12 colon)
0.449 µM: TGI (OVCAR-3 ovarian)
23.8 µM: TGI (SR leukemia)
31.8 µM: TGI (SK-OV-3 ovarian)
0.723 µM and 1.3 µM: TGI (HCT-15 colon)
active: GI50 (KM20L2 colon) < 0.01 µM | GI50 (NCI-H460 lung) < 0.01 µM | GI50 (SW-620 colon) < 0.01 µM | GI50 (KM12 colon) < 0.01 µM | GI50 (U251 CNS) < 0.01 µM | GI50 (OVCAR-8 ovarian) < 0.01 µM | GI50 (COLO 205 colon) < 0.01 µM | GI50 (IGROV1 ovarian) < 0.01 µM | GI50 (HCT-116 colon) < 0.01 µM | GI50 (HCC-2998 colon) < 0.01 µM | GI50 (CAKI-1 renal) < 0.01 µM | GI50 (LOX IMVI melanoma) < 0.01 µM | GI50 (K-562 leukemia) < 0.01 µM | GI50 (EKVX NSCLC) < 0.01 µM | GI50 (M19-MEL melanoma) < 0.01 µM | GI50 (SNB-75 CNS) < 0.01 µM | GI50 (DLD-1 colon) < 0.01 µM | GI50 (HCT-15 colon) < 0.01 µM | GI50 (SK-MEL-2 melanoma) < 0.01 µM | GI50 (A498 renal) < 0.01 µM | GI50 (SK-MEL-5 melanoma) < 0.01 µM | GI50 (SK-OV-3 ovarian) < 0.01 µM | GI50 (SF-268 CNS) < 0.01 µM | GI50 (LXFL 529 NSCLC) < 0.01 µM | GI50 (RXF 393 renal) < 0.01 µM | GI50 (SR leukemia) < 0.01 µM | GI50 (NCI-H23 lung) < 0.01 µM | GI50 (SF-295 CNS) < 0.01 µM | GI50 (HOP-92 NSCLC) < 0.01 µM | GI50 (HL-60(TB) leukemia) < 0.01 µM | GI50 (SF-539 CNS) < 0.01 µM | GI50 (MOLT-4 leukemia) < 0.01 µM | GI50 (SN12C renal) < 0.01 µM | GI50 (UO-31 renal) < 0.01 µM | GI50 (DMS 114 small cell lung) < 0.01 µM | GI50 (HOP-62 NSCLC) < 0.01 µM | GI50 (786-0 renal) < 0.01 µM | GI50 (M14 melanoma) < 0.01 µM | GI50 (CCRF-CEM leukemia) < 0.01 µM | GI50 (OVCAR-4 ovarian) < 0.01 µM | GI50 (SNB-19 CNS) < 0.01 µM | GI50 (A549 NSCLC) < 0.01 µM | GI50 (MALME-3M melanoma) < 0.01 µM | GI50 (ACHN renal) < 0.01 µM | GI50 (NCI-H226 lung) < 0.01 µM | GI50 (UACC-62 melanoma) < 0.01 µM
0.605 µM: TGI (XF 498 CNS)
2.27 µM: TGI (CCRF-CEM leukemia)
19.8 µM: TGI (LOX IMVI melanoma)
0.59 µM and 0.138 µM: TGI (NCI-H226 lung)
0.271 µM: TGI (NCI-H522 lung)
0.0439 µM: TGI (HL-60(TB) leukemia)
0.728 µM and 0.111 µM: TGI (U251 CNS)
15.7 µM: TGI (UACC-62 melanoma)
> 100 µM: TGI (SW-620 colon) | TGI (IGROV1 ovarian) | TGI (CAKI-1 renal) | TGI (EKVX NSCLC) | TGI (M19-MEL melanoma) | TGI (HOP-18 NSCLC) | TGI (TK-10 renal) | TGI (LXFL 529 NSCLC) | TGI (SF-295 CNS) | TGI (HOP-92 NSCLC) | TGI (MOLT-4 leukemia) | TGI (RPMI-8226 leukemia) | TGI (SN12C renal) | TGI (UO-31 renal) | TGI (HOP-62 NSCLC) | TGI (786-0 renal) | TGI (OVCAR-5 ovarian) | TGI (OVCAR-4 ovarian) | TGI (SNB-19 CNS) | TGI (A549 NSCLC) | TGI (ACHN renal) | TGI (RXF-631 renal) | TGI (UACC-257 melanoma)
inactive: GI50 (TK-10 renal) > 100 µM | GI50 (OVCAR-5 ovarian) > 100 µM | GI50 (UACC-257 melanoma) 3.45 µM
23.7 µM: TGI (K-562 leukemia)

COC(=O)/C(C)=C(/CCC1(C)OCCO1)O[Si](C)(C)C
71.7 µM: TGI (SNB-75 CNS)
> 100 µM: TGI (KM20L2 colon) | TGI (NCI-H460 lung) | TGI (SW-620 colon) | TGI (KM12 colon) | TGI (DMS 273 small cell lung) | TGI (U251 CNS) | TGI (OVCAR-8 ovarian) | TGI (COLO 205 colon) | TGI (IGROV1 ovarian) | TGI (HCT-116 colon) | TGI (HCC-2998 colon) | TGI (CAKI-1 renal) | TGI (LOX IMVI melanoma) | TGI (K-562 leukemia) | TGI (EKVX NSCLC) | TGI (M19-MEL melanoma) | TGI (DLD-1 colon) | TGI (HOP-18 NSCLC) | TGI (SNB-78 CNS) | TGI (HCT-15 colon) | TGI (SK-MEL-2 melanoma) | TGI (SK-MEL-5 melanoma) | TGI (XF 498 CNS) | TGI (TK-10 renal) | TGI (SK-OV-3 ovarian) | TGI (SF-268 CNS) | TGI (LXFL 529 NSCLC) | TGI (RXF 393 renal) | TGI (NCI-H23 lung) | TGI (SF-295 CNS) | TGI (HOP-92 NSCLC) | TGI (HL-60(TB) leukemia) | TGI (HT29 colon) | TGI (SF-539 CNS) | TGI (MOLT-4 leukemia) | TGI (RPMI-8226 leukemia) | TGI (SN12C renal) | TGI (UO-31 renal) | TGI (DMS 114 small cell lung) | TGI (HOP-62 NSCLC) | TGI (786-0 renal) | TGI (M14 melanoma) | TGI (OVCAR-5 ovarian) | TGI (OVCAR-3 ovarian) | TGI (CCRF-CEM leukemia) | TGI (OVCAR-4 ovarian) | TGI (SNB-19 CNS) | TGI (A549 NSCLC) | TGI (MALME-3M melanoma) | TGI (ACHN renal) | TGI (UACC-62 melanoma) | TGI (UACC-257 melanoma)
